Results from PMC5926251 (Japanese Journal of Cancer Research : Gann, 2000).
Several values for one entry are separate records, joined by “and”; a condition that tells them apart may be missing. Identical values can stand only once.

What was measured:
[1] = molecular target: HIV-1 reverse transcriptase (Human immunodeficiency virus type 1 group M subtype B, UniProt P03366); assay: HIV-1 reverse transcriptase activity assay; assay type: biochemical; conditions: 20 µM compound, 0.05 units enzyme; Fig. 3
[2] = molecular target: T1, DNA polymerase β (Rattus norvegicus, UniProt P06766); assay: Kinetic analysis of pol. β inhibition; assay type: biochemical; conditions: for Inhibitory mode: from Lineweaver Burk plot
[3] = molecular target: Bovine pancreas deoxyribonuclease I (Bos taurus, UniProt P00639); assay: Deoxyribonuclease I activity assay; assay type: biochemical; conditions: 20 µM compound, 0.05 units enzyme; Fig. 3
Bovine pancreas deoxyribonuclease I, sequence (P00639 23-282): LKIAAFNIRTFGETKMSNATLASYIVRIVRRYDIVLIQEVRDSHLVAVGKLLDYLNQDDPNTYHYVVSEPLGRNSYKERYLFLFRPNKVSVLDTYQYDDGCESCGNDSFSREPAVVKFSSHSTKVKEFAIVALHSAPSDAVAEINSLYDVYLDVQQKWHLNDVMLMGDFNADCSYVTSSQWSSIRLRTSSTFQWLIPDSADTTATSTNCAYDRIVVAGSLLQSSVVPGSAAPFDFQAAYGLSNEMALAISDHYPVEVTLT

[4] = molecular target: T1, DNA polymerase β; assay: DNA polymerase assay, pol. β; assay type: biochemical; conditions: for Relative activity: Pol. β, Table III
[5] = molecular target: T2, DNA polymerase α (Bos taurus, UniProt A0AAA9TD94); assay: DNA polymerase assay, pol. α; assay type: biochemical, calf; conditions: for Relative activity: Pol. α, Table III
T2 sequence (A0AAA9TD94 1-1441): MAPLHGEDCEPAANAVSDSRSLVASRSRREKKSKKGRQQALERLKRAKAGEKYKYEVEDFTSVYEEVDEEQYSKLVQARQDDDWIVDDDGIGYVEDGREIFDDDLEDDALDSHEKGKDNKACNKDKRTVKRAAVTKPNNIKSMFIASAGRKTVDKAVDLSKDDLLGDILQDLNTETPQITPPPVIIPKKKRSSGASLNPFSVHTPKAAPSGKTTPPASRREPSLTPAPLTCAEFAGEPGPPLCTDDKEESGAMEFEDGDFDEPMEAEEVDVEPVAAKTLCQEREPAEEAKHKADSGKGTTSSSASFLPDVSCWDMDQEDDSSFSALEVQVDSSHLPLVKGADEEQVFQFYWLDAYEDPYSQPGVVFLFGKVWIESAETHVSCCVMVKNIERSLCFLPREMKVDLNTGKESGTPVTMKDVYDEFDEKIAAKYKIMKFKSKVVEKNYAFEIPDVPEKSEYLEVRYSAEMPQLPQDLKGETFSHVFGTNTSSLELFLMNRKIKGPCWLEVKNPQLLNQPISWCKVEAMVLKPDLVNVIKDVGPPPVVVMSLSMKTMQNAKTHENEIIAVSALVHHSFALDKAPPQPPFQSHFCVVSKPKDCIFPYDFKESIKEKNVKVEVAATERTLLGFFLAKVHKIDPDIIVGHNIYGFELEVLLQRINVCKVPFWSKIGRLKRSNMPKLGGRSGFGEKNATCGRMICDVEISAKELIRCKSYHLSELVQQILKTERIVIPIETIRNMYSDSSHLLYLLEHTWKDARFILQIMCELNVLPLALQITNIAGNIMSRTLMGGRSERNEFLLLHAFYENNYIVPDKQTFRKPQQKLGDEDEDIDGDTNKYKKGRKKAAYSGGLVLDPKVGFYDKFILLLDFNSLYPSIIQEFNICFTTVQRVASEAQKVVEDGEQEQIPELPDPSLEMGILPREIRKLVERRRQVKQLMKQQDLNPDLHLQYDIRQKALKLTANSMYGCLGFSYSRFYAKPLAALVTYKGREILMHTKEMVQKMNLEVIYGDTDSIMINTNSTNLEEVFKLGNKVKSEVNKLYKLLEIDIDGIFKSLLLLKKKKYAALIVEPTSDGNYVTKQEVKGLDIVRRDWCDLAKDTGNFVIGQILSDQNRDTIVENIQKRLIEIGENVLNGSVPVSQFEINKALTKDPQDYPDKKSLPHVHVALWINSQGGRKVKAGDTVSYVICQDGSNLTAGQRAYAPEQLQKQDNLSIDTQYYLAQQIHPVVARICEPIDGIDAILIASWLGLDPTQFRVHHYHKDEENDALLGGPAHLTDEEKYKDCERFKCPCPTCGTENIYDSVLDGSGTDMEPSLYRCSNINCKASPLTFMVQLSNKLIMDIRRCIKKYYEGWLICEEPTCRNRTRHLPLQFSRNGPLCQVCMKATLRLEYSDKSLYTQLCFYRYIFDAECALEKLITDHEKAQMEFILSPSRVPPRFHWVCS

[6] = molecular target: T7 RNA polymerase (Escherichia phage T7, UniProt P00573); conditions: 20 µM compound, 0.05 units enzyme; Fig. 3
T7 RNA polymerase, sequence (P00573 whole entry): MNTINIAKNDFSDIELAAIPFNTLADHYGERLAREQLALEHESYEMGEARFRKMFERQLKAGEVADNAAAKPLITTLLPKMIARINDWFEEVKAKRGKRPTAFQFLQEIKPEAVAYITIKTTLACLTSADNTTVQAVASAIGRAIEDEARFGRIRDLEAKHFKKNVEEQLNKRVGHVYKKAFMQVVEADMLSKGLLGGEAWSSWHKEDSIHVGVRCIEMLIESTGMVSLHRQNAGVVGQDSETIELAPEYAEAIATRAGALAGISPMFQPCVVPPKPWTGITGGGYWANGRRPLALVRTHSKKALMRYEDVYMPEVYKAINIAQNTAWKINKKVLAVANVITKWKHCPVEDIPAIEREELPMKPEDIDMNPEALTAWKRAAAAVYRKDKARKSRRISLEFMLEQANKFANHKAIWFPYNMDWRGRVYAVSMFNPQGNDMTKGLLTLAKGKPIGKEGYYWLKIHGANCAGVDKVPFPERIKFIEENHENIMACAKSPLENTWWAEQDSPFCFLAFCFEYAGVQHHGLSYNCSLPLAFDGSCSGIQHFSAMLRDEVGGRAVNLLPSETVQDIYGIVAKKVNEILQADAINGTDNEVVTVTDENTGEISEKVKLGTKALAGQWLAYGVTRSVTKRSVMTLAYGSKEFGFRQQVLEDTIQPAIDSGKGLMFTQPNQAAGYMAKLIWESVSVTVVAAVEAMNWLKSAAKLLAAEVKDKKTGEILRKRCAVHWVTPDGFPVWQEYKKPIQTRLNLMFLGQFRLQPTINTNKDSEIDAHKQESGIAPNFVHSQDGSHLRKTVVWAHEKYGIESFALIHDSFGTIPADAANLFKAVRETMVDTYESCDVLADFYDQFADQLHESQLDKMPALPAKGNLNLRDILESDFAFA

[7] = molecular target: T2, DNA polymerase α; assay: Kinetic analysis of pol. α inhibition; assay type: biochemical, calf; conditions: for Inhibitory mode: from Lineweaver Burk plot
[8] = molecular target: E. coli DNA polymerase I (Escherichia coli, UniProt P00582); assay: E. coli DNA polymerase I activity assay; assay type: biochemical; conditions: 20 µM compound, 0.05 units enzyme; Fig. 3
E. coli DNA polymerase I, sequence (P00582 whole entry): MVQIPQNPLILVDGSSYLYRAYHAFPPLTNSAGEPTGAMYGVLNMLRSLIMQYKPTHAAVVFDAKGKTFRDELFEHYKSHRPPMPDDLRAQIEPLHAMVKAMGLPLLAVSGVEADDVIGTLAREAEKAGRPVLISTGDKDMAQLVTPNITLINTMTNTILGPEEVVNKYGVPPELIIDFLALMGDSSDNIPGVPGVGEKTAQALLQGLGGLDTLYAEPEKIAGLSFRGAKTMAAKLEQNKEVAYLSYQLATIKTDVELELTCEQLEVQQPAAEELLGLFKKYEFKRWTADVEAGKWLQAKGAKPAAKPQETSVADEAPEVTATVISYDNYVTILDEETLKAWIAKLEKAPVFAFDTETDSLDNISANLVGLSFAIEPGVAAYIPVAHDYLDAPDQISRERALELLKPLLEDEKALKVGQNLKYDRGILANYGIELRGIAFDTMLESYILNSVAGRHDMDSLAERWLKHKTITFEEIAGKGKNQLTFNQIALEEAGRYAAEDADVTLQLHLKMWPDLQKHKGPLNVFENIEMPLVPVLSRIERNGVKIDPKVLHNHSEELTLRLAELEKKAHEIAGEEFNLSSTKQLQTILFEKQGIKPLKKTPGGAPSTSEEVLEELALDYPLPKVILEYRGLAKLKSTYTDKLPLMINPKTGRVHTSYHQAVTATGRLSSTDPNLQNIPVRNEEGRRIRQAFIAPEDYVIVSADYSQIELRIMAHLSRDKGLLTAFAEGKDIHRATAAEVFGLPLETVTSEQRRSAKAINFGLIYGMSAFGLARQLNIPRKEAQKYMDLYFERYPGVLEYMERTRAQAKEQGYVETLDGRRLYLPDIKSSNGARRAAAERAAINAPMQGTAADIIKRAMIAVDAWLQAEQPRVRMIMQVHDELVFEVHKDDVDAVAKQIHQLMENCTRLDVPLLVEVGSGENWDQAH

[9] = nucleotide substrate dTTP, from Dixon plot
[10] = template-primer poly(dA)/oligo(dT)12-18, from Dixon plot
[11] = versus nucleotide substrate dTTP
[12] = Minimum inhibitory concentration: dose that resulted in inhibition of 80% or more of the activity, Table I

Structure (SMILES): CCCCCCCCCCCCCCCCCC(=O)OC[C@H](CO[C@H]1O[C@H](CS(=O)(=O)O)[C@@H](O)[C@H](O)[C@H]1O)OC(=O)CCCCCCCCCCCCCCCCC [C18--SQDG]
- Effect on HIV-1 reverse transcriptase activity [1]: moderate inhibitory effect
- Ki [2, 9]: 36 µM
- Vmax ([2]; nucleotide substrate dTTP, one value printed for all sulfolipid conc.): 38 pmol/h
- Ki [2, 10]: 5 µM
- Inhibitory mode [2, 11]: Competitive
- Inhibitory mode ([2]; versus template-primer): Competitive
- Effect on deoxyribonuclease I activity [3]: hardly affected
- MIC Pol. β [4, 12]: 60 µM and 62 µM
- Relative activity ([4]; 20 µM compound + 40 µM poly(rC)): 59%
- Relative activity ([4]; 20 µM compound + 0.05% NP-40): 101%
- Relative activity ([4]; 20 µM compound + 80 g/ml BSA): 63%
- Relative activity ([4]; 20 µM compound alone): 65%
- IC50 ([4]; read-out: IC50 Pol. β, 50%-inhibitory concentration, Table I): 37 µM and 43 µM
- MIC Pol. α [5, 12]: 1.1 µM and 1.2 µM
- Relative activity ([5]; 2 µM compound + 40 µM poly(rC)): 12%
- Relative activity ([5]; 2 µM compound + 0.05% NP-40): 15%
- Relative activity ([5]; 2 µM compound + 80 g/ml BSA): 16%
- Relative activity ([5]; 2 µM compound alone): 10%
- IC50 ([5]; read-out: IC50 Pol. α, 50%-inhibitory concentration, Table I): 0.4 µM
- Effect on T7 RNA polymerase activity [6]: hardly affected
- Ki [7, 9]: 0.6 µM
- Vmax ([7]; nucleotide substrate dTTP, sulfolipid conc. 0.2): 170 pmol/h
- Vmax ([7]; nucleotide substrate dTTP, sulfolipid conc. 0.4): 100 pmol/h
- Vmax ([7]; nucleotide substrate dTTP, sulfolipid conc. 0.6): 56 pmol/h
- Ki [7, 10]: 0.2 µM
- Vmax ([7]; template-primer, sulfolipid conc. 0.2): 100 pmol/h
- Vmax ([7]; template-primer, sulfolipid conc. 0.4): 56 pmol/h
- Vmax ([7]; template-primer, sulfolipid conc. 0.6): 40 pmol/h
- Inhibitory mode [7, 11]: Non-competitive
- Inhibitory mode ([7]; versus template-primer): Non-competitive
- Effect on E. coli DNA polymerase I activity [8]: hardly affected
